Test results published in the CombiSolv-Exp solvation set (Vermeire and Green 2021).
One block for each compound: values may come before it.

Test: solvent given as SMILES
[1] = in CCCCCCCCC=CCCCCCCCC(=O)OCC(COC(=O)CCCCCCCC=CCCCCCCCC)OC(=O)CCCCCCCC=CCCCCCCCC

solvation free energy, 298 K (in O): -6.92 kcal/mol
Structure (SMILES): OCCCc1ccccc1

solvation free energy, 298 K (in O): -12.4 kcal/mol
Structure (SMILES): CCOc1ccc(C(=O)N(O)c2ccc(C)cc2)cc1

Structure (SMILES): CCCCCCCCBr
solvation free energy, 298 K (in O): 0.52 kcal/mol

solvation free energy, 298 K (in CC(C)CC(C)(C)C): -8.62 kcal/mol
solvation free energy, 298 K (in CCCCCC): -9.26 kcal/mol
solvation free energy, 298 K [1]: -10.2 kcal/mol
Structure (SMILES): CCCCCCCCCCCCO

solvation free energy, 298 K (in O): -3.26 kcal/mol
Structure (SMILES): COC(C)OC

Structure (SMILES): BrCBr
solvation free energy, 298 K (in CCCCCCCCCCCCCCCC): -3.87 kcal/mol
solvation free energy, 298 K (in CCCCCCCCO): -4.19 kcal/mol
solvation free energy, 298 K (in O): -2.01 kcal/mol
solvation free energy, 298 K (in [2H]O[2H]): -2.03 kcal/mol

Structure (SMILES): CI
solvation free energy, 298 K (in Brc1cccc2ccccc12): -3.3 kcal/mol
solvation free energy, 298 K (in CC(=O)N(C)C): -3.63 kcal/mol
solvation free energy, 298 K (in CC(=O)OCc1ccccc1): -3.34 kcal/mol
solvation free energy, 298 K (in CC(C)=O): -3.56 kcal/mol
solvation free energy, 298 K (in CC(C)CC(C)(C)C): -2.94 kcal/mol
solvation free energy, 298 K (in CCC(C)=O): -3.48 kcal/mol
solvation free energy, 298 K (in CCCCCCC): -3.03 kcal/mol
solvation free energy, 298 K (in CCCCCCCC): -2.99 kcal/mol
solvation free energy, 298 K (in CCCCCCCCO): -2.95 kcal/mol
solvation free energy, 298 K (in CCCCCl): -3.44 kcal/mol
solvation free energy, 298 K (in CCCCO): -3.04 kcal/mol
solvation free energy, 298 K (in CCO): -2.99 kcal/mol
solvation free energy, 298 K (in CCOC(C)=O): -3.46 kcal/mol
solvation free energy, 298 K (in CN1CCCC1=O): -3.77 kcal/mol
solvation free energy, 298 K (in CN(C)C=O): -3.49 kcal/mol
solvation free energy, 298 K (in CO): -3.21 kcal/mol
solvation free energy, 298 K (in Cc1ccc(C)cc1): -3.47 kcal/mol
solvation free energy, 298 K (in ClC(Cl)(Cl)Cl): -3.49 kcal/mol
solvation free energy, 298 K (in ClC(Cl)Cl): -3.78 kcal/mol
solvation free energy, 298 K (in ClCCCl): -3.62 kcal/mol
solvation free energy, 298 K (in ClCCl): -3.83 kcal/mol
solvation free energy, 298 K (in N#Cc1ccccc1): -3.41 kcal/mol
solvation free energy, 298 K (in O): -0.89 kcal/mol
solvation free energy, 298 K (in O=C1CCCCC1): -3.58 kcal/mol
solvation free energy, 298 K (in c1ccc2ncccc2c1): -3.4 kcal/mol

Structure (SMILES): c1ccc2ccccc2c1
solvation free energy, 298 K (in C1CCOC1): -8.21 kcal/mol
solvation free energy, 298 K (in C1COCCO1): -7.98 kcal/mol
solvation free energy, 298 K (in CC(=O)OCC(C)C): -7.7 kcal/mol
solvation free energy, 298 K (in CC(C)(C)O): -6.85 kcal/mol
solvation free energy, 298 K (in CC(C)=O): -7.84 kcal/mol
solvation free energy, 298 K (in CC(C)CC(C)(C)C): -6.92 kcal/mol
solvation free energy, 298 K (in CC(C)CO): -7.09 kcal/mol
solvation free energy, 298 K (in CC(C)O): -6.9 kcal/mol
solvation free energy, 298 K (in CCC(C)O): -6.88 kcal/mol
solvation free energy, 298 K (in CCCCCC): -7.24 kcal/mol
solvation free energy, 298 K (in CCCCCCC): -7.22 kcal/mol
solvation free energy, 298 K [1]: -7.56 kcal/mol
solvation free energy, 298 K (in CCCCCCCCO): -7.08 kcal/mol
solvation free energy, 298 K (in CCCCCCO): -7.12 kcal/mol
solvation free energy, 298 K (in CCCCCO): -6.89 kcal/mol
solvation free energy, 298 K (in CCCCO): -7.09 kcal/mol
solvation free energy, 298 K (in CCCO): -7.08 kcal/mol
solvation free energy, 298 K (in CCO): -7.08 kcal/mol
solvation free energy, 298 K (in CCOC(C)=O): -7.78 kcal/mol
solvation free energy, 298 K (in CN1CCCC1=O): -8.08 kcal/mol
solvation free energy, 298 K (in CN(C)C=O): -7.95 kcal/mol
solvation free energy, 298 K (in CO): -7.01 kcal/mol
solvation free energy, 298 K (in Cc1ccc(C)cc1): -7.88 kcal/mol
solvation free energy, 298 K (in Cc1cccc(C)c1): -7.86 kcal/mol
solvation free energy, 298 K (in Cc1ccccc1C): -7.85 kcal/mol
solvation free energy, 298 K (in ClC(Cl)(Cl)Cl): -7.63 kcal/mol
solvation free energy, 298 K (in ClCCCl): -8.02 kcal/mol
solvation free energy, 298 K (in ClCCl): -8.1 kcal/mol
solvation free energy, 298 K (in Clc1ccccc1): -7.87 kcal/mol
solvation free energy, 298 K (in O): -2.37 kcal/mol
solvation free energy, 298 K (in O=C1CCCCC1): -7.72 kcal/mol

solvation free energy, 298 K (in O): -9.55 kcal/mol
Structure (SMILES): O=C(O)c1cccc(O)c1

solvation free energy, 298 K (in O): -0.82 kcal/mol
Structure (SMILES): Cc1ccccc1C(C)C

solvation free energy, 298 K (in O): -0.99 kcal/mol
Structure (SMILES): C1=CC=CCC=C1

solvation free energy, 298 K (in CCCCCCCCCCCCCCCC): -4.32 kcal/mol
solvation free energy, 298 K (in CCCCCCCCO): -4.71 kcal/mol
solvation free energy, 298 K (in O): -2.41 kcal/mol
solvation free energy, 298 K (in [2H]O[2H]): -2.47 kcal/mol
Structure (SMILES): CC(=O)OCC(C)C

solvation free energy, 298 K (in O): -6.11 kcal/mol
Structure (SMILES): CCCCCC(=O)O

solvation free energy, 298 K (in O): 0.19 kcal/mol
Structure (SMILES): CC(C)Cc1ccccc1

Structure (SMILES): O=[N+]([O-])c1ccc(Cl)c(Cl)c1
solvation free energy, 298 K (in C1CCCCC1): -8.7 kcal/mol
solvation free energy, 298 K (in CC(C)O): -8.04 kcal/mol
solvation free energy, 298 K (in CCCCCC): -7.78 kcal/mol
solvation free energy, 298 K (in CCCCCCC): -7.65 kcal/mol
solvation free energy, 298 K [1]: -7.34 kcal/mol
solvation free energy, 298 K (in CCCCO): -8.08 kcal/mol
solvation free energy, 298 K (in CCCO): -8.26 kcal/mol
solvation free energy, 298 K (in CCO): -8.24 kcal/mol
solvation free energy, 298 K (in CCOC(C)=O): -9.16 kcal/mol
solvation free energy, 298 K (in CO): -8.41 kcal/mol
solvation free energy, 298 K (in ClC(Cl)(Cl)Cl): -9.07 kcal/mol

Structure (SMILES): CCOP(=O)(OCC)OCC
solvation free energy, 298 K (in O): -7.5 kcal/mol

solvation free energy, 298 K (in C=CCCCCCCCCCCCCCC): -3.31 kcal/mol
solvation free energy, 298 K (in CC#N): -2.4 kcal/mol
solvation free energy, 298 K (in CCCCCCCCCCCCCCCC): -3.41 kcal/mol
solvation free energy, 298 K (in CCCCCCCCCCCCO): -3.07 kcal/mol
solvation free energy, 298 K (in CCCCCO): -3.15 kcal/mol
solvation free energy, 298 K (in CCCCO): -3.07 kcal/mol
solvation free energy, 298 K (in O): 2.36 kcal/mol
Structure (SMILES): CC(C)C(C)C

Structure (SMILES): ClCCOCCCl
solvation free energy, 298 K (in O): -4.23 kcal/mol

solvation free energy, 298 K (in O): 0.12 kcal/mol
Structure (SMILES): CC1=CC=C(C(C)C)CC1

Structure (SMILES): CCCCCCOC(=O)c1ccccc1C(=O)OCCCCCC
solvation free energy, 298 K (in O): -6.78 kcal/mol

Structure (SMILES): FC(F)(F)Cl
solvation free energy, 298 K (in CCCCCCC): -0.6 kcal/mol
solvation free energy, 298 K (in CCCCCCCC): -0.53 kcal/mol
solvation free energy, 298 K (in CCCCCCCC(=O)OCC(COC(=O)CCCCCCC)OC(=O)CCCCCCC): -0.03 kcal/mol
solvation free energy, 298 K (in CCCCCCCCC): -0.46 kcal/mol
solvation free energy, 298 K (in CCCCCCCCO): -0.06 kcal/mol
solvation free energy, 298 K (in CN1CCCC1=O): 0.23 kcal/mol
solvation free energy, 298 K (in CN(C)C=O): 0.08 kcal/mol
solvation free energy, 298 K (in ClC(Cl)(Cl)Cl): -0.6 kcal/mol
solvation free energy, 298 K (in O): 2.31 kcal/mol

solvation free energy, 298 K (in O): -4.82 kcal/mol
Structure (SMILES): Cc1cccnc1C

solvation free energy, 298 K (in O): -7.67 kcal/mol
Structure (SMILES): COc1cccc(O)c1
